Reference: ChEMBL document CHEMBL1255199, “Endochin optimization: structure-activity and structure-property relationship studies of 3-substituted 2-methyl-4(1H)-quinolones with antimalarial activity” (J Med Chem, 2010)
In brackets after ≈: the same amount, converted by molar mass.

Key:
[1] = Lipophilicity, log D of the compound at pH 7.4; conditions: buffer
[2] = tested on: Plasmodium falciparum; assay: Antimalarial activity against chloroquine, mefloquine, pyrimethamine and atovaquone-resistant Plasmodium falciparum TM90-C2B infected in human A+ erythrocytes after 72 hrs by SYBR Green I assay; type: functional, organism-based
[3] = in vitro; conditions: mouse, J774 cells
Description: Cytotoxicity index, ratio of EC50 for mice (Mus musculus) J774 cells to EC50 for chloroquine, mefloquine, pyrimethamine and atovaquone-resistant Plasmodium falciparum TM90-C2B

[4] = Passive transcellular permeability of the compound at pH 7.4 by PAMPA; type: ADME; conditions: for Papp: read-out: permeability
[5] = physchem; conditions: aqueous, pH 7.4
Description: Aqueous solubility of the compound at pH 7.4 by HPLC analysis

[6] = Passive transcellular permeability of the compound at pH 4 by PAMPA; type: ADME; conditions: for Papp: read-out: permeability
[7] = tested on: J774; assay: Cytotoxicity against mouse J774 cells; type: cell-based
[8] = tested on: Plasmodium falciparum; assay: Antimalarial activity against chloroquine and pyrimethamine-resistant Plasmodium falciparum W2 infected in human A+ erythrocytes after 72 hrs by SYBR Green I assay; type: functional, organism-based; conditions: W2, 72 h

Row | SMILES | logD [1] | EC50 [2] [µM] | selectivity ratio [3] | Papp [4] [×10⁻⁶ cm/s] | solubility [5] [µM] | Papp [6] [×10⁻⁶ cm/s] | EC50 [7] [µM] | EC50 [8] [µM] | permeability [6] [×10⁻⁶ cm/s] | permeability [4] [×10⁻⁶ cm/s]
1 | Cc1[nH]c2cc(Cl)cc(Cl)c2c(=O)c1-c1ccccc1 | 2.72 | 3.44 | > 9.5 | 320 | 5 (≈ 1.52 µg/mL) | 460 | > 32.9 | 2.15 | – | –
2 | Cc1[nH]c2ccccc2c(=O)c1C1CCCCC1 | 2.45 | 2.23 | > 18.6 | 230 | 10 (≈ 2.41 µg/mL) | 260 | > 41.4 | 0.591 | – | –
3 | Cc1[nH]c2ccccc2c(=O)c1-c1ccccc1 | 2.02 | 0.538 | > 79.1 | 33 | > 20 | 16.6 | > 42.5 | 0.711 | – | –
4 | Cc1[nH]c2ccccc2c(=O)c1Cc1ccccc1 | 1.93 | 6.2 | > 6.5 | 102 | 10 (≈ 2.49 µg/mL) | 110 | > 40.1 | > 5.01 | – | –
5 | COc1ccc2[nH]c(C)c(Br)c(=O)c2c1 | 1.62 | 1.17 | > 32 | 16.7 | > 20 | – | > 37.3 | 3 | – | –
6 | Cc1[nH]c2ccc(Br)cc2c(=O)c1Br | 1.76 | 0.339 | > 92.9 | 95.2 | > 20 | 133 | > 31.5 | 1.4 | – | –
7 | Cc1[nH]c2ccc(Cl)cc2c(=O)c1Br | 2.02 | 0.126 | 172 | 87.7 | 5 (≈ 1.36 µg/mL) | 84.5 | 21.7 | 0.845 | – | –
8 | CCCCC#Cc1c(C)[nH]c2ccc(Cl)cc2c1=O | 2.98 | 43.1 | > 0.84 | – | 2 (≈ 0.548 µg/mL) | 171 | > 36.3 | > 9.06 | – | –
9 | CCCCC#Cc1c(C)[nH]c2ccc(F)cc2c1=O | 5.64 | > 9.64 | > 4 | 495 | 2 (≈ 0.515 µg/mL) | 314 | > 38.6 | > 9.64 | – | –
10 | COc1cccc2[nH]c(C)c(-c3ccccc3)c(=O)c12 | 1.63 | 5.08 | > 7.4 | 333 | > 20 | 24.4 | > 37.7 | 8.15 | – | –
11 | Cc1[nH]c2cccc(Cl)c2c(=O)c1Cc1ccccc1 | 2.65 | 5.26 | > 6.7 | 251 | 2 (≈ 0.568 µg/mL) | 244 | > 35.2 | 0.63 | – | –
12 | Cc1[nH]c2ccc(Cl)cc2c(=O)c1Cc1ccccc1 | 2.79 | 3.28 | > 10.7 | 415 | < 2 | 422 | > 35.2 | 2.47 | – | –
13 | Cc1[nH]c2cc(Cl)ccc2c(=O)c1Cc1ccccc1 | 2.69 | 15.7 | > 2.2 | 392 | < 2 | 341 | > 35.2 | 2.17 | – | –
14 | Cc1[nH]c2c(Cl)cccc2c(=O)c1Cc1ccccc1 | 2.78 | > 8.81 | > 4 | 412 | 5 (≈ 1.42 µg/mL) | 430 | > 35.2 | > 8.81 | – | –
15 | Cc1[nH]c2cccc(Cl)c2c(=O)c1-c1ccccc1 | 1.88 | 4.74 | > 7.8 | 99.6 | 10 (≈ 2.7 µg/mL) | 91 | > 37.1 | 5.06 | – | –
16 | Cc1[nH]c2ccc(Cl)cc2c(=O)c1-c1ccccc1 | 2.43 | 0.777 | > 47.7 | 108 | 5 (≈ 1.35 µg/mL) | 111 | > 37.1 | 0.244 | – | –
17 | Cc1[nH]c2cc(Cl)ccc2c(=O)c1-c1ccccc1 | 2.18 | 1.86 | > 19.9 | – | < 2 | 37.8 | > 37.1 | 0.216 | – | –
18 | Cc1[nH]c2c(Cl)cccc2c(=O)c1-c1ccccc1 | 2.6 | > 9.27 | > 4 | 165 | 5 (≈ 1.35 µg/mL) | 158 | > 37.1 | > 9.27 | – | –
19 | Cc1[nH]c2ccc(Cl)c(Cl)c2c(=O)c1-c1ccccc1 | 2.83 | 3.21 | > 10.2 | 192 | < 2 | 285 | > 32.9 | 0.659 | – | –
20 | Cc1[nH]c2cc(Cl)c(Cl)cc2c(=O)c1-c1ccccc1 | 3.05 | 0.35 | > 93.3 | – | < 2 | – | > 32.9 | 0.569 | – | –
21 | Cc1[nH]c2c(Cl)cc(Cl)cc2c(=O)c1-c1ccccc1 | 3.32 | > 8.22 | > 4 | 232 | < 2 | 162 | > 32.9 | > 8.22 | – | –

Row | SMILES | logD [1] | EC50 [2] [µM] | selectivity ratio [3] | Papp [4] [×10⁻⁶ cm/s] | solubility [5] [µM] | Papp [6] [×10⁻⁶ cm/s] | EC50 [7] [µM] | EC50 [8] [µM] | permeability [6] [×10⁻⁶ cm/s] | permeability [4] [×10⁻⁶ cm/s]
22 | CCCCCCC/C=C/c1c(C)[nH]c2ccccc2c1=O | 4.26 | – | – | – | < 2 | 174 | – | 0.0129 | – | –
23 | C=C(CCCCCCC)c1c(C)[nH]c2ccccc2c1=O | 2.35 | – | – | – | < 2 | – | – | 0.0396 | 1755.67 | –
24 | CCCCCC/C=C\Cc1c(C)[nH]c2ccccc2c1=O | 5.94 | – | – | – | < 2 | – | – | 0.102 | – | –
25 | Cc1[nH]c2ccccc2c(=O)c1/C=C/C(=O)OC(C)(C)C | 2.34 | > 8.35 | > 4.8 | 124 | > 20 | 105 | > 40 | > 8.35 | – | –
26 | Cc1[nH]c2ccccc2c(=O)c1/C=C/c1cccc([N+](=O)[O-])c1 | 2.95 | 1.49 | > 21.9 | 602 | < 2 | 508 | > 32.6 | 4.6 | – | –
27 | Cc1[nH]c2ccccc2c(=O)c1/C=C/c1ccc(O)cc1 | 1.77 | > 9.02 | > 4 | 17 | > 20 | 10.7 | > 36.1 | > 9.01 | – | –
28 | COc1cccc2[nH]c(C)c(Cc3ccccc3)c(=O)c12 | 2.11 | 2.11 | 5.33 | 158 | > 20 | 69.8 | 11.2 | 6.44 | – | –
29 | COc1ccc2[nH]c(C)c(Cc3ccccc3)c(=O)c2c1 | 2.53 | 23.7 | > 1 | 188 | 2 (≈ 0.559 µg/mL) | 167 | > 23.7 | > 8.95 | – | –
30 | COc1ccc2c(=O)c(Cc3ccccc3)c(C)[nH]c2c1 | 2.52 | 1.38 | > 25.9 | 240 | 5 (≈ 1.4 µg/mL) | 200 | > 35.8 | 0.733 | – | –
31 | COc1cccc2c(=O)c(Cc3ccccc3)c(C)[nH]c12 | 2.24 | > 5.45 | > 6.5 | 125 | > 20 | 164 | > 35.8 | > 2.24 | – | –
32 | COc1ccc2c(c1)c(=O)c(Cc1ccccc1)c(C)n2C | 2.73 | 8.06 | – | 268 | 10 (≈ 2.93 µg/mL) | 295 | – | > 8.52 | – | –
33 | Cc1c(Cc2ccccc2)c(=O)c2cc(Cl)ccc2n1C | 3.21 | > 8.4 | – | 489 | 2 (≈ 0.596 µg/mL) | 510 | – | > 8.4 | – | –
34 | COc1ccc2c(=O)c(Cc3ccccc3)c(C)n(C)c2c1 | 3.24 | 7.84 | – | 299 | > 20 | 432 | – | > 8.52 | – | –
35 | COc1ccc2nc(C)c(Cc3ccccc3)c(OC)c2c1 | 4.2 | > 8.52 | – | – | 2 (≈ 0.587 µg/mL) | 294 | – | > 8.52 | – | 1067.76
36 | COc1c(Cc2ccccc2)c(C)nc2ccc(Cl)cc12 | 4.93 | > 8.4 | – | 268 | < 2 | 360 | – | > 8.4 | – | –
37 | COc1ccc2c(OC)c(Cc3ccccc3)c(C)nc2c1 | 4.35 | > 8.52 | – | – | 2 (≈ 0.587 µg/mL) | 325 | – | > 8.52 | – | 1277.24
38 | COc1cc2[nH]c(C)c(-c3ccccc3)c(=O)c2cc1F | 1.72 | 0.083 | > 425 | 124 | 5 (≈ 1.42 µg/mL) | 192 | > 35.3 | 0.167 | – | –
39 | CCCCCCCCCc1c(C)[nH]c2cc(OC)c(Cl)cc2c1=O | 4.74 | 0.00159 | > 18000 | – | < 2 | – | > 28.7 | 0.00603 | – | –
40 | CCCCC#Cc1c(C)[nH]c2cc(OC)c(Cl)cc2c1=O | 2.45 | 4.21 | 3.6 | – | > 20 | 148 | 15 | 2.16 | – | –
41 | Cc1[nH]c2ccccc2c(=O)c1Br | 1.67 | 0.0776 | > 542 | 13.6 | > 20 | 8.19 | > 42 | 0.453 | – | –
